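Results reflect a 48-hour exposure of cells in 96-well plates to compound at five concentrations. GI50 is the concentration that inhibits growth by half.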 Calls of active or inactive are those of the source. Cut-off read from the data, not from the text of the source: active = GI50 up to about 1.1 µM and inactive = higher.
Columns and labels:
Assay in all cases: DTP human tumour cell line panel, 48 h
SK-OV-3 = system: SK-OV-3
SK-MEL-5 = system: SK-MEL-5
ACHN = system: ACHN
SR = system: SR
HT-29 = system: HT-29
MCF7 = system: MCF7
U-251 = system: U-251
PC-3 = system: PC-3
MDA-MB-435 = system: MDA-MB-435
T47D = system: T47D
UACC-62 = system: UACC-62
NCI/ADR-RES = system: NCI/ADR-RES
HOP-92 = system: HOP-92
SNB-19 = system: SNB-19
OVCAR-5 = system: OVCAR-5
HCT-116 = system: HCT-116
TK-10 = system: TK-10
SK-MEL-2 = system: SK-MEL-2
OVCAR-8 = system: OVCAR-8
HCT-15 = system: HCT-15

SMILES | GI50 (SK-OV-3) | GI50 (SK-MEL-5) | GI50 (ACHN) | GI50 (SR) | GI50 (HT-29) | GI50 (MCF7) | GI50 (U-251) | GI50 (PC-3) | GI50 (MDA-MB-435) | GI50 (T47D) | GI50 (UACC-62) | GI50 (NCI/ADR-RES) | GI50 (HOP-92) | GI50 (SNB-19) | GI50 (OVCAR-5) | GI50 (HCT-116) | GI50 (TK-10) | GI50 (SK-MEL-2) | GI50 (OVCAR-8) | GI50 (HCT-15)
NC(=S)N/N=C/C1NCCC2CCCCC21 (stereo not given) | 0.37 µM (active) | 0.118 µM (active) | 0.0134 µM (active) | 0.137 µM (active) | 2.86 µM (inactive) | 0.59 µM (active) | 0.136 µM (active) | 0.363 µM (active) | 0.414 µM (active) | 0.282 µM (active) | 0.0452 µM (active) | 0.254 µM (active) | 0.0641 µM (active) | 0.35 µM (active) | 0.796 µM (active) | 0.281 µM (active) | 0.33 µM (active) | 0.824 µM (active) | 0.149 µM (active) | 0.0895 µM
Sc1nn2c(COc3ccc(Cl)cc3)nnc2s1 | > 100 µM (inactive) | > 100 µM (inactive) | > 100 µM (inactive) | > 100 µM (inactive) | > 100 µM (inactive) | > 100 µM (inactive) | > 100 µM (inactive) | > 100 µM (inactive) | > 100 µM (inactive) | > 100 µM (inactive) | > 100 µM (inactive) | > 100 µM (inactive) | > 100 µM (inactive) | > 100 µM (inactive) | > 100 µM (inactive) | > 100 µM (inactive) | > 100 µM (inactive) | > 100 µM (inactive) | > 100 µM (inactive) | 81.8 µM
S=C1NC(c2ccccc2)NC(c2ccccc2)S1 (stereo not given) | > 100 µM (inactive) | > 100 µM (inactive) | > 100 µM (inactive) | > 100 µM (inactive) | 14.1 µM (inactive) | 28.2 µM (inactive) | 39.4 µM (inactive) | > 100 µM (inactive) | > 100 µM (inactive) | > 100 µM (inactive) | 55 µM (inactive) | > 100 µM (inactive) | > 100 µM (inactive) | 55.5 µM (inactive) | > 100 µM (inactive) | > 100 µM (inactive) | > 100 µM (inactive) | > 100 µM (inactive) | > 100 µM (inactive) | 51.1 µM
CC(=O)O[C@H]1C(=O)[C@@]2(C)[C@H]([C@H](OC(=O)C3CCCCC3)[C@]3(O)C[C@H](OC(=O)[C@H](O)[C@@H](NC(=O)OC(C)(C)C)c4ccccc4)C(C)=C1C3(C)C)[C@]1(OC(C)=O)CO[C@@H]1C[C@@H]2O | 0.0151 µM (active) | 0.0107 µM (active) | 0.413 µM (active) | 0.00542 µM (active) | 0.00335 µM (active) | 0.00259 µM (active) | 0.0137 µM (active) | 0.0168 µM (active) | 0.00226 µM (active) | 0.0678 µM (active) | 0.0129 µM (active) | > 3.03 µM (inactive) | 0.0148 µM (active) | 0.0326 µM (active) | 0.0074 µM (active) | 0.00378 µM (active) | 0.151 µM (active) | 0.0803 µM (active) | 0.0144 µM (active) | 0.268 µM
O=C1c2c(F)c(F)c(F)c(F)c2SC2=Nc3cccc4cccc(c34)N12 | 4.14 µM (inactive) | 14.1 µM (inactive) | 7.05 µM (inactive) | 2.13 µM (inactive) | 7.48 µM (inactive) | 3.78 µM (inactive) | 3.78 µM (inactive) | 5.68 µM (inactive) | 4.94 µM (inactive) | 1.56 µM (inactive) | 4.22 µM (inactive) | 2.77 µM (inactive) | 2.37 µM (inactive) | 8.09 µM (inactive) | 16.1 µM (inactive) | 4.08 µM (inactive) | 13.3 µM (inactive) | 2.75 µM (inactive) | 5.41 µM (inactive) | 4.92 µM
COc1c2c3c4c(c(OC)c(=O)c5c(O)cc(OC)c(c6c(OC)cc(O)c(c1=O)c63)c54)C(C(C)O)C2C(C)=O (stereo not given) | 0.826 µM (active) | 0.138 µM (active) | 0.497 µM (active) | 0.178 µM (active) | 0.47 µM (active) | 0.603 µM (active) | 0.299 µM (active) | 0.26 µM (active) | 0.295 µM (active) | 0.454 µM (active) | 0.483 µM (active) | 0.296 µM (active) | 0.225 µM (active) | 0.264 µM (active) | 0.603 µM (active) | 0.385 µM (active) | 0.581 µM (active) | 0.738 µM (active) | 0.321 µM (active) | 0.652 µM
Cc1cccc(-c2cc(O)c3ccc(C)nc3n2)c1 | 0.656 µM (active) | 0.0895 µM (active) | 0.711 µM (active) | 0.0491 µM (active) | 0.198 µM (active) | 0.443 µM (active) | 0.389 µM (active) | 0.261 µM (active) | 0.0294 µM (active) | 0.249 µM (active) | 0.41 µM (active) | 0.141 µM (active) | 1.14 µM (inactive) | 0.506 µM (active) | 0.723 µM (active) | 0.297 µM (active) | 3.3 µM (inactive) | 0.421 µM (active) | 0.8 µM (active) | 0.194 µM
CO[C@H]1C[C@H](O[C@H]2CC[C@]3(C=O)[C@H]4CC[C@]5(C)[C@@H](C6=CC(=O)OC6)CC[C@]5(O)[C@@H]4CC[C@]3(O)C2)O[C@H](C)[C@H]1O [CYMARIN] | 0.114 µM (active) | 0.0993 µM (active) | 0.0912 µM (active) | 0.409 µM (active) | 0.233 µM (active) | 0.463 µM (active) | 0.314 µM (active) | 0.203 µM (active) | 0.344 µM (active) | 0.384 µM (active) | 0.43 µM (active) | 0.257 µM (active) | 0.341 µM (active) | 0.713 µM (active) | 0.478 µM (active) | 0.163 µM (active) | 0.167 µM (active) | 0.397 µM (active) | 0.307 µM (active) | 0.192 µM
COC(=O)C(Cc1ccccc1)NS(=O)(=O)c1ccc(-c2c3nc(c(-c4ccc(S(=O)(=O)NC(Cc5ccccc5)C(=O)OC)cc4)c4ccc([nH]4)c(-c4ccc(S(=O)(=O)NC(Cc5ccccc5)C(=O)OC)cc4)c4nc(c(-c5ccc(S(=O)(=O)NC(Cc6ccccc6)C(=O)OC)cc5)c5ccc2[nH]5)C=C4)C=C3)cc1 (stereo not given) | > 100 µM (inactive) | > 100 µM (inactive) | > 100 µM (inactive) | > 100 µM (inactive) | > 100 µM (inactive) | > 100 µM (inactive) | 28.1 µM (inactive) | > 100 µM (inactive) | > 100 µM (inactive) | > 100 µM (inactive) | > 100 µM (inactive) | > 100 µM (inactive) | 31.8 µM (inactive) | 40.9 µM (inactive) | > 100 µM (inactive) | > 100 µM (inactive) | > 100 µM (inactive) | > 100 µM (inactive) | > 100 µM (inactive) | > 100 µM
CSC1SCC2C(=O)N(C)C3(CC3C)C(=O)OCC(NC(=O)c3nc4ccccc4cc3O)C(=O)NC(C)C(=O)N(C)C1C(=O)N(C)C1(CC1C)C(=O)OCC(NC(=O)c1nc3ccccc3cc1O)C(=O)NC(C)C(=O)N2C (stereo not given) | < 0.0001 µM (active) | < 0.0001 µM (active) | < 0.0001 µM (active) | < 0.0001 µM (active) | < 0.0001 µM (active) | < 0.0001 µM (active) | < 0.0001 µM (active) | < 0.0001 µM (active) | < 0.0001 µM (active) | < 0.0001 µM (active) | < 0.0001 µM (active) | 0.176 µM (active) | < 0.0001 µM (active) | < 0.0001 µM (active) | < 0.0001 µM (active) | < 0.0001 µM (active) | < 0.0001 µM (active) | < 0.0001 µM (active) | < 0.0001 µM (active) | 0.0146 µM
Cc1cc(S(=O)(=O)Nc2nnc3cnc4ccccc4n23)c(S)cc1Cl | > 100 µM (inactive) | > 41.7 µM (inactive) | 6.73 µM (inactive) | > 100 µM (inactive) | > 100 µM (inactive) | > 100 µM (inactive) | > 74.1 µM (inactive) | > 100 µM (inactive) | > 100 µM (inactive) | > 100 µM (inactive) | 79.1 µM (inactive) | > 100 µM (inactive) | 11.1 µM (inactive) | 51.9 µM (inactive) | > 100 µM (inactive) | > 100 µM (inactive) | > 100 µM (inactive) | 97.1 µM (inactive) | > 52.1 µM (inactive) | > 100 µM
C/C(=N\NS(=O)(=O)c1ccc(C)cc1)c1ccccn1 | 55.3 µM (inactive) | 33.4 µM (inactive) | 26.1 µM (inactive) | 65 µM (inactive) | 44.5 µM (inactive) | 53.8 µM (inactive) | 88.5 µM (inactive) | 84.3 µM (inactive) | > 100 µM (inactive) | 76.9 µM (inactive) | 40.2 µM (inactive) | 38 µM (inactive) | > 100 µM (inactive) | 74.8 µM (inactive) | > 100 µM (inactive) | 40.7 µM (inactive) | 70.6 µM (inactive) | > 100 µM (inactive) | 50.8 µM (inactive) | 38.5 µM
Cn1c2c(c3ccccc31)CCN1C(=O)C34CCCC3CC21S4 (stereo not given) | > 100 µM (inactive) | 76.2 µM (inactive) | > 100 µM (inactive) | > 100 µM (inactive) | > 100 µM (inactive) | > 100 µM (inactive) | > 100 µM (inactive) | 95.1 µM (inactive) | > 100 µM (inactive) | 87.1 µM (inactive) | 78.7 µM (inactive) | > 100 µM (inactive) | > 100 µM (inactive) | > 100 µM (inactive) | > 100 µM (inactive) | > 100 µM (inactive) | > 100 µM (inactive) | > 100 µM (inactive) | > 100 µM (inactive) | > 100 µM
